Values of other authors in CN111214447A, “一种甲磺酸沙芬酰胺固体组合物及其制备方法” (Beijing Wanquan Dezhong Medical Biological Technology Co Ltd, priority 2018, dated 2020).
≈ marks a conversion by molar mass, not a printed value.

Settings: aqueous medium, pH=7

## C[C@H](NCc1ccc(OCc2cccc(F)c2)cc1)C(N)=O [沙芬酰胺, 甲磺酸]
  solubility: 10 µg/mL (≈ 33.1 µM)
